The subject of this test is HCT116. In words: ADC in vitro cell killing assay (CCK-8). The class given is cell-based, human. As to conditions: HCT116, 72 h. On the procedure: HCT116 (Cat: CBP60028, Cobioer Biosciences Co., Ltd.) in the logarithmic growth phase was trypsinized, plated in a 96-well plate at 3000 cells/well in 100 µL, and the plate was incubated in a 37°C, 5% CO2 incubator for 24 h. ADC was subjected to a 5-fold serial dilution with cell culture medium (Ham's F-12K, 10% FBS, AusGenex, Cat:FBS500-S) starting from 30000nM, yielding 10 concentration gradients. 10 µL of the diluted sample was added to the cell plate for mixing well, and the plate was incubated in a 37°C, 5% CO2 incubator for 72 h. 10 µL of Cell Counting Kit-8 (CellorLab, CX001) was added to the plate, and the plate was incubated in a 37 °C, 5% CO2 constant temperature incubator for 3 h. The absorbance value at 450 nm was measured with a microplate reader. Data was analyzed with Graphpad, with the in vitro killing activity of TEM8 antibody-drug conjugate shown in Table 5 and the IC50 curve shown in FIG. 4. Table 5: In vitro killing activity of TEM8 antibody-drug conjugate or linker + payload or payload

Starred links: 1 amine or outer side, 2 acyl side, 3 side chain; linkers in the order of their positions; H or OH if unused. Non-standard residues stand in square brackets, D forms with d. Residues, ends and D or L forms follow the SMILES beside them. *: point of attachment. Dolaproine = CO[C@@H]([C@@H]1CCCN1)[C@@H](C)C(=O)O; Hexanoyl(6-maleimido) = O=C1C=CC(=O)N1CCCCCC(=O)*; Dil = CC[C@H](C)[C@H](NC)[C@@H](CC(=O)O)OC; PABC = O=C(OCc1ccc(N[*:1])cc1)[*:2]; X1 = C[C@@H](N*)[C@@H](O)c1ccccc1; Cit = NC(=O)NCCC[C@H](N)C(=O)O; NMeV = CN[C@H](C(=O)O)C(C)C

Molecule `CC[C@H](C)[C@@H]([C@@H](CC(=O)N1CCC[C@H]1[C@H](OC)[C@@H](C)C(=O)N[C@H](C)[C@@H](O)c1ccccc1)OC)N(C)C(=O)[C@@H](NC(=O)[C@@H](NC)C(C)C)C(C)C` [MMAE] (H-[NMeV]V[Dil][Dolaproine]-X1) came in with an IC50 of 14.8 nM.

Consider `CC[C@H](C)[C@@H]([C@@H](CC(=O)N1CCC[C@H]1[C@H](OC)[C@@H](C)C(=O)N[C@H](C)[C@@H](O)c1ccccc1)OC)N(C)C(=O)[C@@H](NC(=O)[C@H](C(C)C)N(C)C(=O)OCc1ccc(NC(=O)[C@H](CCCNC(N)=O)NC(=O)[C@@H](NC(=O)CCCCCN2C(=O)C=CC2=O)C(C)C)cc1)C(C)C` [VcMMAE] ({Hexanoyl(6-maleimido)}-V[Cit][PABC][NMeV]V[Dil][Dolaproine]-X1), for which the IC50 is 1280 nM.

These data come from patent publication EP4722246A1, “TEM8-TARGETED ANTIBODY OR ANTIGEN-BINDING FRAGMENT THEREOF, AND USE THEREOF” (Inxmed (Nanjing) Co., Ltd., priority 2023, dated 2024).
